# In US20080269121A1, “Methods and Compositions Involving A1c Subunit of L-Type Calcium Channels in Smooth Muscle Cells” (The Board of Regents of the University of Texas System, priority 2005, published 2008):
# “Also recorded” adds a separate entry of the source.
# Tests used:
# [1] = tested on: HCCSMC; experiment: Cytosolic free Ca^2+ measurement (fura-2 AM) in HCCSMC; format: cell-based, human; conditions: treatment for 24 h, by
# Description: Cytosolic free Ca^2+ measurement: Cytosolic calcium level ([Ca^2+]i) was measured in a wide-field imaging system at the UTMB core Optical Imaging Laboratory using the Ca^2+-sensitive fluorescent dye fura 2-AM (Molecular Probes, Eugene, Oreg.). HCCSMC cultured on cover slips were incubated with 1 μM fura 2-AM for 45 min at 37° C. in a modified HEPES buffer (pH 7.4) containing (in mM): 10 HEPES, 125 NaCl, 5 KCl, 1 CaCl2, 0.5 MgSO4, 5 glucose. Cover slips with cells were washed with fresh medium and mounted on the stage of a Nikon TE200 inverted microscope (Nikon Instruments, Lewisville, Tex.) equipped with a CoolSNAP HQ cooled-CCD monochrome digital camera (Roper Scientific, Tucson Ariz.). Cells were examined under a super-fluor 20×0.75 NA objective during exposure to alternating 340 and 380 nm excitation light (DG4 illuminator system, Sutter Instrument, Novato, Calif.), and the intensity of light emission at 510 nm was measured. The light intensities and their ratio, F340/F380, which reflects changes in Ca^2+ concentration, were followed simultaneously in several single cells in the field. The acquisition process was controlled by the Metafluor image acquisition software (Universal Imaging Corp. Downingtown, Pa.).
# [2] = tested on: human colonic circular muscle strips; experiment: Muscle bath: contractile response of human colonic circular muscle strips; format: cell-based
# Description: Muscle bath experiments. Pure circular muscle strips (2 mm×10 mm) are prepared from resected human colon segments. The strips are mounted in 5 ml baths filled with carbonated Krebs solution (in mM: 118 NaCl, 4.7 KCl, 2.5 CaCl2, 1 NaH2PO4, 1-2 MgCl2, 11 D-glucose, and 25 NaHCO3) at 37° C. (Siebenlist et al., 1994; Barnes and Karin, 1997). The muscle strips are equilibrated for 1 h at 1 g tension and then stretched until maximal response is obtained to 10^−4 m ACh. The bathing solution is replaced every 15 min. Contractions are measured by force transducers and analyzed by DATAQ (Akron, Ohio) software.
# The protocol for transfection of sense and antisense oligonucleotides in freshly obtained muscle strips was similar to that in HCCSMC. The circular muscle layer was isolated from the fall thickness human colon, and sliced into 2 mm×10 mm muscle strips. The strips were incubated in RPMI 1640 without serum. The sense and antisense oligonucleotides (10 μM) were added into the medium for 24 h before incubation with 20 ng/mL TNFα for 24 h.
# [3] = tested on: CRE1 and CRE2; experiment: Oligonucleotide agarose conjugate pull-down of CREB; format: cell-based, human; conditions: FIG. 10
# [4] = tested on: α1C subunit of L-type Ca^2+ channels; experiment: Q-PCR of α1C mRNA expression in HCCSMC; format: cell-based, human
# Text: (§1) Primary cultures of HCCSMC: Human tissue was obtained from the descending and sigmoid colons with approval of the University of Texas Medical Branch Institutional Review Board from disease free margins of resected segments from patients undergoing surgery for colon cancer. The circular muscle layer was separated from the taenia coli and lamina propria with a tissue slicer. The circular muscle layer was collected in ice-cold HEPES buffer (in mM: 120 NaCl, 2.6 KH2S04, 4 KCl, 2 CaCl2, 0.6 MgCl2, 25 HEPES, 14 glucose and 2.1% essential amino acid mixture, pH 7.4). Two successive digestions with papain and collagenase, as described previously by Shi and Sarna, were used to disperse smooth muscle cells. The cells were cultured in RPMI 1640 (Gibco/Invitrogen, Carlsbad, Calif.) supplemented with 10% fetal bovine serum in the presence of 100 units/mL of penicillin G, 100 μg/mL of streptomycin sulfate and 0.25 μg/mL of amphoteracin B. The culture medium was changed every three days. Cells in passages 3 to 5 were used in all experiments. All cells were cultured in serum-free medium for at least 15 h prior to experiments to eliminate the possible effects of growth factors. […] The cultures of colonic smooth muscle cells retain their contractile phenotype. Each experiment used cells or muscle strips from at least three different subjects.
# Total RNA was extracted from cells using the Qiagen RNeasy kit (Qiagen, Valencia, Calif.) by following the manufacturer's protocol. The cDNAs were made using the Superscript First-Strand Synthesis System (Invitrogen, Carlsbad, Calif.).
# Quantitive real-time-polymerase chain reaction (Q-PCR). Q-PCR assay is employed to determine gene expression using TaqMan technology on Applied Biosystems 7000 sequence detection system (UTMB Real-time PCR Core Facility). Applied Biosystems Assays-By-Design containing a 20× assay mix of primers and TaqMan MGB probes (FAMTM dye-labeled) are used for a target gene and the endogenous control, human 18s RNA. These assays were designed using primers that span exon-exon junctions so as not to detect genomic DNA. All primer and probe sequences were searched against the Celera data base to confirm specificity. The primer and probe sequences used were as follows: human Cav1.2 channel oα1C intermediate form (Cav1.2b) probe spanning exon 1b and exon 2, […] (SEQ ID NO:4): forward primer, […] (SEQ ID NO:5): reverse primer, […] (SEQ ID NO:6). Human Cav1.2 channel α1C long form (Cav1.2a) probe spanning exon 1a and exon 2: […] (SEQ ID NO:7): forward primer, […] (SEQ ID NO:8): reverse primer. […] (SEQ ID NO:6).
# [5] = tested on: α1C subunit of L-type Ca^2+ channels; experiment: α1C protein expression (Western immunoblotting); format: cell-based, human
# Text: as §1
# Western immunoblotting. Each lane is loaded with 10 μg protein and size-separated on a 10% SDS polyacrylamide gel. After blotting, the nitrocellulose membranes are blocked with 10% non-fat dried milk at 4° C. overnight. The blots are incubated with appropriate dilution of the antibody at 4° C. overnight and appropriate dilution of designated secondary antibody at room temperature for 1 h. β-actin is used as internal control.
# [6] = tested on: p38; experiment: MAP kinase phosphorylation: p38; format: cell-based
# [7] = tested on: cAMP; experiment: cAMP levels in HCCSMC; format: cell-based, human
# Text: as §1
# [8] = tested on: TNBS (trinitrobenzene sulfonic, acid)-induced colitis; conditions: systemic bolus injections, mouse; cited from earlier work
substance,measurement,setting,value
vasoactive intestinal polypeptide [VIP],Ca^2+ influx,[1],enhanced Ca^2+ influx
same,effect on TNFα suppression of contractile response to ACh,"[2]; muscle strips, treatment before/with TNFα",significantly reduces the suppression; also recorded: partially reversed the suppression
same,contractile response of circular muscle strips to ACh,"[2]; strips incubated 24 h, organ bath",enhanced the contractile response to ACh and KCl; also recorded: increased their contractile response to ACh; also recorded: enhanced it
same,CREB binding to CRE1 and CRE2,[3],more CREB binds at both CRE1 and CRE2
same,induction of α1C mRNA expression,[4]; HCCSMC,induced expression; also recorded: enhanced the mRNA of α1C
same,duration of α1C mRNA transcription and translation after treatment,"[4]; HCCSMC, FIG. 3",at least 24 h
same,increase of α1C mRNA,"[4]; at 6 h, adult human colonic circular smooth muscle cells",about 50%
same,increase of α1C protein,[5]; adult human colonic circular smooth muscle cells,about 100%
same,effect on TNFα suppression of α1C protein,"[5]; muscle strip tissue, FIG. 14 top",minimized
same,phosphorylation of p38,[6],time-dependently dephosphorylated
same,duration of elevated cAMP levels,[7],at least 24 h
same,intercellular cAMP levels,[7]; 24 h treatment,elevated throughout the 24 h period
same,MPO (myeloperoxidase) activity,[8],did not completely suppress
same,TNBS-induced diarrhea,[8],abrogated TNBS-induced diarrhea
same,macroscopic and microscopic inflammation,[8],reduced macroscopic and microscopic inflammation
